Literature values as cited in patent US20180338996A1, “COMBINATION THERAPY FOR TRAUMATIC BRAIN INJURY” (UNIVERSITY OF SOUTH FLORIDA, priority 2017, published 2018).

Row | Structure (SMILES) | adverse effects in clinical use
1 | CN(CCOc1ccc(CC2SC(=O)NC2=O)cc1)c1ccccn1 (centres unmarked) [rosiglitazone] | weight gain, fluid retention, congestive heart failure, and bone fractures
2 | CCc1ccc(CCOc2ccc(CC3SC(=O)NC3=O)cc2)nc1 (centres unmarked) [PG, pioglitazone] | weight gain, fluid retention, congestive heart failure, and bone fractures
